Measured values from patent publication US4605674A, “Substituted acetophenones and compositions containing them” (Hoffmann-La Roche Inc., priority 1979, dated 1986).
In brackets after ≈: the same amount, converted by molar mass. Where two headings read alike, the source gives them in different places.

Experiments:
[1] = system: rhinovirus HGP; test: Inhibition of viral cytopathogenic effect (c.p.e.) of rhinovirus HGP in HeLa cells; type: cell-based, human rhinoviruses; settings: Enterovirus, 48 h, read-out: IC50 against rhinovirus HGP (concentration inhibiting the viral c.p.e. by 50%)
Experimental: A suspension of HeLa cells (6×10^4) was mixed with rhinovirus HGP (3×10^3 plaque forming units, PFU) and was plated in a microtest plate containing the compounds to be tested serially diluted. The cells were then cultured with Eagle's minimum essential medium containing 2% calf serum, 1% tryptose phosphate broth, 100 μg/ml of streptomycin sulfate and 20 unit/ml of penicillin G. Viral c.p.e. (cytopathogenic effect) was observed by a microscope after 2 days culture at 33° C.
The antiviral activity of the tested compounds is expressed by the concentration inhibiting the viral c.p.e. by 50% when compared to the control culture (IC50).

[2] = in vivo; settings: mouse, DDY mice, single dose
Experimental: ^(1) DDY mice weighing 15-20 g were treated with a single dose of the
compound. Survivors were recorded on day 21.
^(2) Compounds were dissolved in dimethylsulfoxide.
^(3) Compounds were suspended with solution of 0.5% carboxymethyl

[3] = ip, i.p., dissolved in dimethylsulfoxide, day 21, read-out: LD50 i.p.
[4] = po, p.o., suspended in 0.5% carboxymethyl cellulose, day 21, read-out: LD50 p.o.

IC50 ([1]; HeLa cells, 2 days culture at 33° C.) | Structure (SMILES) | IC50 ([1]; HeLa) | LD50 at 504 h [2, 3] | LD50 at 504 h [2, 4]
 | COc1cc(O)c(C(=O)/C=C/c2ccc(C)cc2)c(OC)c1 | 0.01 µg/mL (≈ 0.0335 µM) | > 1000 mg/kg | > 5000 mg/kg
 | CCOc1ccc(/C=C/C(=O)c2c(O)cc(OCC)cc2OCC)cc1 | 0.25 µg/mL (≈ 0.701 µM) | > 1000 mg/kg | > 3000 mg/kg
 | COc1cc(O)c(C(=O)/C=C/c2ccc(N(C)C)cc2)c(OC)c1 | 0.02 to 0.06 µg/mL (≈ 0.0611 to 0.183 µM) | > 1000 mg/kg | > 5000 mg/kg
 | COc1cc(O)c(C(=O)/C=C/c2ccc(OC)c(O)c2)c(OC)c1 [2',3-dihydroxy-4,4',6'-trimethoxychalcone] | 0.1 to 0.3 µg/mL (≈ 0.303 to 0.908 µM) | > 500 mg/kg | > 1000 mg/kg
 | CCOc1cc(O)c(C(=O)C=Cc2ccc(C)o2)c(OCC)c1 [2',4'-diethoxy-6'-hydroxy-3-(5-methyl-2-furyl)-acrylophenone] | 0.04 to 0.12 µg/mL (≈ 0.126 to 0.379 µM) | > 500 mg/kg | > 1000 mg/kg
 | CCOc1cc(O)c(C(=O)/C=C/c2ccc(OC)cc2)c(OCC)c1 [2',4'-diethoxy-6'-hydroxy-4-methoxychalcone] | 0.03 to 0.1 µg/mL (≈ 0.0876 to 0.292 µM) | > 1000 mg/kg | > 2000 mg/kg
 | CCC(=O)Oc1cc(OC)cc(OC)c1C(=O)C=Cc1ccc2c(c1)OCO2 [2',4'-dimethoxy-3,4-(methylenedioxy)-6'-(propionyloxy)-chalcone] | 0.1 µg/mL (≈ 0.26 µM) | > 500 mg/kg | > 1000 mg/kg
 | CCC(=O)Oc1cc(OC)cc(OC)c1C(=O)C=Cc1cccn1C [2',4'-dimethoxy-3-(1-methylpyrrol-2-yl)-6'-(propionyloxy)-acrylophenone] | 0.3 µg/mL (≈ 0.874 µM) | > 500 mg/kg | > 5000 mg/kg
 | CCC(=O)Oc1cc(OC)cc(OC)c1C(=O)C=Cc1ccc(C)o1 [2',4'-dimethoxy-3-(5-methyl-2-furyl)-6'-(propionyloxy)-acrylophenone] | 0.03 to 0.1 µg/mL (≈ 0.0871 to 0.29 µM) | > 500 mg/kg | > 2000 mg/kg
 | CCC(=O)Oc1cc(OC)cc(OC)c1C(=O)/C=C/c1ccc(SC)cc1 [2',4'-dimethoxy-4-(methylthio)-6'-(propionyloxy)-chalcone] | 0.03 to 0.1 µg/mL (≈ 0.0776 to 0.259 µM) | > 1000 mg/kg | > 5000 mg/kg
 | CCC(=O)Oc1cc(OC)cc(OC)c1C(=O)/C=C/c1ccc(C)cc1 [2',4'-dimethoxy-4-methyl-6'-(propionyloxy)-chalcone] | 0.03 µg/mL (≈ 0.0846 µM) | > 1000 mg/kg | > 5000 mg/kg
 | CCC(=O)Oc1cc(OC)cc(OC)c1C(=O)C=Cc1cccs1 [2',4'-dimethoxy-6'-(propionyloxy)-3-(2-thienyl)-acrylophenone] | 0.1 to 0.3 µg/mL (≈ 0.289 to 0.866 µM) | > 1000 mg/kg | > 5000 mg/kg
 | CCCOc1ccc(/C=C/C(=O)c2c(OC)cc(OC)cc2OC(=O)CC)cc1 [2',4'-dimethoxy-6'-(propionyloxy)-4-propoxychalcone] | 0.1 to 0.3 µg/mL (≈ 0.251 to 0.753 µM) | > 1000 mg/kg | > 5000 mg/kg
 | CCC(=O)Oc1cc(OC)cc(OC)c1C(=O)/C=C/c1ccccc1 [2',4'-dimethoxy-6'-(propionyloxy)-chalcone] | 0.3 to 1 µg/mL (≈ 0.881 to 2.94 µM) | > 1000 mg/kg | > 5000 mg/kg
 | CCOc1ccc(/C=C/C(=O)c2c(OCC)cc(OCC)cc2OC(=O)CC)cc1 [2',4,4'-triethoxy-6'-(propionyloxy)-chalcone] | 0.1 to 0.3 µg/mL (≈ 0.242 to 0.727 µM) | > 1000 mg/kg | > 5000 mg/kg
 | COc1ccc(/C=C/C(=O)c2c(OC)cc(OC)cc2OC(=O)c2cccnc2)cc1 [2',4,4'-trimethoxy-6'-(nicotinoyloxy)chalcone] | 0.01 to 0.025 µg/mL (≈ 0.0238 to 0.0596 µM) | > 500 mg/kg | > 4000 mg/kg
 | CCCCCCCCCCCCCCCCCC(=O)Oc1cc(OC)cc(OC)c1C(=O)/C=C/c1ccc(OC)cc1 [2',4,4'-trimethoxy-6'-(octadecanoyloxy)chalcone] | 0.05 to 0.1 µg/mL (≈ 0.0861 to 0.172 µM) | > 500 mg/kg | > 4000 mg/kg
 | COc1ccc(/C=C/C(=O)c2c(OC)cc(OC)cc2OC(=O)C(C)(C)C)cc1 [2',4,4'-trimethoxy-6'-(pivaloyloxy)-chalcone] | 0.01 to 0.03 µg/mL (≈ 0.0251 to 0.0753 µM) | > 1000 mg/kg | > 5000 mg/kg
 | COc1ccc(/C=C/C(=O)c2c(OC)cc(OC)cc2OC(=O)c2cnccn2)cc1 [2',4,4'-trimethoxy-6'-(pyrazinylcarbonyloxy)-chalcone] | 0.03 to 0.1 µg/mL (≈ 0.0714 to 0.238 µM) | > 500 mg/kg | > 4000 mg/kg
 | CCOc1ccc(/C=C/C(=O)c2c(O)cc(OC)cc2OCC)cc1 [2',4-diethoxy-6'-hydroxy-4'-methoxychalcone] | 0.1 µg/mL (≈ 0.292 µM) | > 500 mg/kg | > 5000 mg/kg
0.3 to 1 µg/mL (≈ 0.908 to 3.03 µM) | COc1cc(O)c(C(=O)/C=C/c2ccc(O)c(OC)c2)c(OC)c1 [2',4-dihydroxy-3,4',6'-trimethoxychalcone] |  |  | 
